Legend:
PC-3 [1] = assay: Antiproliferative activity against human PC3 cells after 96 hrs by MTT assay; format: functional; conditions: PC-3, 96 h
[2] = molecular target: T1, Peptidyl-prolyl cis-trans isomerase NIMA-interacting 1 (Homo sapiens, UniProt Q13526); assay: Inhibition of recombinant N-terminal His6-tagged human Pin1 at 10 uM using Suc-Ala-Glu-cis-Pro-Phe-4-nitroanilide as substrate preincubated for 30 mins followed by substrate addition measured for 90 secs
[3] = molecular target: T1, Peptidyl-prolyl cis-trans isomerase NIMA-interacting 1; assay: Inhibition of recombinant N-terminal His6-tagged human Pin1 using Suc-Ala-Glu-cis-Pro-Phe-4-nitroanilide as substrate preincubated for 30 mins followed by substrate addition measured for 90 secs
PC-3 [4] = assay: Cell cycle arrest in human PC3 cells assessed as accumulation at G0/G1 phase at 0.25 uM after 24 hrs by RNase/propidium iodide staining-based flow cytometric analysis (reference value: 55.03%); format: functional
PC-3 [5] = assay: Cell cycle arrest in human PC3 cells assessed as accumulation at G0/G1 phase at 1 uM after 24 hrs by RNase/propidium iodide staining-based flow cytometric analysis (reference value: 55.03%); format: functional
PC-3 [6] = assay: Cell cycle arrest in human PC3 cells assessed as accumulation at G0/G1 phase at 0.5 uM after 24 hrs by RNase/propidium iodide staining-based flow cytometric analysis (reference value: 55.03%); format: functional
PC-3 [7] = assay: Induction of apoptosis in human PC3 cells assessed as downregulation of Cyclin D1 expression after 24 hrs by Western blot analysis; format: functional, cell-based

T1 sequence (Q13526 whole entry): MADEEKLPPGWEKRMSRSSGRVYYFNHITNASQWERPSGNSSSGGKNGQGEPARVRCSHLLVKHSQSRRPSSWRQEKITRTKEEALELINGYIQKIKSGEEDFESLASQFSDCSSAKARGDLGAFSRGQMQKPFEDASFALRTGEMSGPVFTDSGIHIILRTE

## COc1ccccc1/C=C1\C[C@]2(C)[C@H]3C(=O)C=C4[C@@H]5[C@@H](C)[C@H](C)CC[C@]5(C)CC[C@@]4(C)[C@]3(C)CC[C@H]2[C@@](C)(C(=O)OCc2ccccc2)C1=O
PC-3 [1]
  GI50: > 50 µM
[2]
  inhibition: 57%

## C[C@H]1[C@H](C)CC[C@]2(C)CC[C@]3(C)C(=CC(=O)[C@@H]4[C@@]5(C)CC[C@@H](OC(=O)COc6ccc(-c7cc(-c8ccccc8)[nH]n7)cc6)[C@](C)(C(=O)O)[C@@H]5CC[C@]43C)[C@H]12
PC-3 [1]
  GI50: 7.8 µM
[2]
  inhibition: 66%

## COC(=O)[C@@]1(C)c2onc(C(=O)O)c2C[C@@]2(C)[C@H]1CC[C@]1(C)[C@@H]2C(=O)C=C2[C@@H]3[C@@H](C)[C@H](C)CC[C@]3(C)CC[C@]21C
PC-3 [1]
  GI50: 37.6 µM
[2]
  inhibition: 41%

## COC(=O)[C@@]1(C)C(=O)/C(=C/C(=O)O)C[C@]2(C)[C@H]3C(=O)C=C4[C@@H]5[C@@H](C)[C@H](C)CC[C@]5(C)CC[C@@]4(C)[C@]3(C)CC[C@@H]12
PC-3 [1]
  GI50: 8 µM
[2]
  inhibition: 51%

## CC(=O)N1N=C(c2ccc(OCC(=O)O[C@@H]3CC[C@@]4(C)[C@@H](CC[C@]5(C)[C@@H]4C(=O)C=C4[C@@H]6[C@@H](C)[C@H](C)CC[C@]6(C)CC[C@]45C)[C@@]3(C)C(=O)O)cc2)CC1c1ccccc1 (some centres undefined)
PC-3 [1]
  GI50: 9.42 µM
[2]
  inhibition: 32%

## C[C@H]1[C@H](C)CC[C@]2(C)CC[C@]3(C)C(=CC(=O)[C@@H]4[C@@]5(C)C/C(=C\C(=O)O)C(=O)[C@](C)(C(=O)OCc6ccccc6)[C@@H]5CC[C@]43C)[C@H]12
[3]
  IC50: 0.46 µM
PC-3 [4]
  Activity: 62.35%
PC-3 [1]
  GI50: 1.82 µM
PC-3 [5]
  Activity: 72%
PC-3 [6]
  Activity: 67.62%
PC-3 [7]
  Activity: Dose-dependent effect
[2]
  inhibition: 97%

## CCN(CC)CC(=O)O[C@@H]1CC[C@@]2(C)[C@@H](CC[C@]3(C)[C@@H]2C(=O)C=C2[C@@H]4[C@@H](C)[C@H](C)CC[C@]4(C)CC[C@]23C)[C@@]1(C)C(=O)O
PC-3 [1]
  GI50: 10.7 µM
[2]
  inhibition: 58%

## C[C@H]1[C@H](C)CC[C@]2(C)CC[C@]3(C)C(=CC(=O)[C@@H]4[C@@]5(C)C/C(=C\C(=O)O)C(=O)[C@](C)(C(=O)N6CCOCC6)[C@@H]5CC[C@]43C)[C@H]12
[3]
  IC50: 2.68 µM
PC-3 [1]
  GI50: 2.78 µM
[2]
  inhibition: 82%

## C[C@H]1[C@H](C)CC[C@]2(C)CC[C@]3(C)C(=CC(=O)[C@@H]4[C@@]5(C)CC[C@@H](OC(=O)COc6ccc(C(=O)/C=C/c7ccccc7)cc6)[C@](C)(C(=O)O)[C@@H]5CC[C@]43C)[C@H]12
[3]
  IC50: 0.97 µM
PC-3 [1]
  GI50: 8.84 µM
[2]
  inhibition: 95%

## C[C@H]1[C@H](C)CC[C@]2(C)CC[C@]3(C)C(=CC(=O)[C@@H]4[C@@]5(C)CC[C@@H](OC(=O)CN6CCCCC6)[C@](C)(C(=O)O)[C@@H]5CC[C@]43C)[C@H]12
[3]
  IC50: 1.01 µM
PC-3 [1]
  GI50: 11.6 µM
[2]
  inhibition: 95%

## C[C@H]1[C@H](C)CC[C@]2(C)CC[C@]3(C)C(=CC(=O)[C@@H]4[C@@]5(C)CC[C@@H](OC(=O)COc6ccccc6)[C@](C)(C(=O)O)[C@@H]5CC[C@]43C)[C@H]12
PC-3 [1]
  GI50: 18.5 µM
[2]
  inhibition: 35%

## C[C@H]1[C@H](C)CC[C@]2(C)CC[C@]3(C)C(=CC(=O)[C@@H]4[C@@]5(C)C/C(=C\c6ccccc6C(=O)O)C(=O)[C@](C)(C(=O)OCc6ccccc6)[C@@H]5CC[C@]43C)[C@H]12
[3]
  IC50: 0.68 µM
PC-3 [1]
  GI50: 3.29 µM
[2]
  inhibition: 94%

## C[C@H]1[C@H](C)CC[C@]2(C)CC[C@]3(C)C(=CC(=O)[C@@H]4[C@@]5(C)Cc6c(C(=O)O)noc6[C@](C)(C(=O)OCc6ccccc6)[C@@H]5CC[C@]43C)[C@H]12
PC-3 [1]
  GI50: 26.9 µM
[2]
  inhibition: 29%

## C[C@H]1[C@H](C)CC[C@]2(C)CC[C@]3(C)C(=CC(=O)[C@@H]4[C@@]5(C)CC[C@@H](OC(=O)CN6CCOCC6)[C@](C)(C(=O)O)[C@@H]5CC[C@]43C)[C@H]12
PC-3 [1]
  GI50: 10.6 µM
[2]
  inhibition: 78%

## C[C@H]1[C@H](C)CC[C@]2(C)CC[C@]3(C)C(=CC(=O)[C@@H]4[C@@]5(C)C/C(=C\C(=O)O)C(=O)[C@](C)(C(=O)N6CCCCC6)[C@@H]5CC[C@]43C)[C@H]12
[3]
  IC50: 0.55 µM
PC-3 [1]
  GI50: 7.11 µM
[2]
  inhibition: 89%

## C[C@H]1[C@H](C)CC[C@]2(C)CC[C@]3(C)C(=CC(=O)[C@@H]4[C@@]5(C)CC[C@@H](OC(=O)CN(C)c6ccccc6)[C@](C)(C(=O)O)[C@@H]5CC[C@]43C)[C@H]12
[3]
  IC50: 1.27 µM
PC-3 [1]
  GI50: 13.7 µM
[2]
  inhibition: 94%

## CC(=O)O[C@@H]1CC[C@@]2(C)[C@@H](CC[C@]3(C)[C@@H]2C(=O)C=C2[C@@H]4[C@@H](C)[C@H](C)CC[C@]4(C)CC[C@]23C)[C@@]1(C)C(=O)O [AKBA]
[3]
  IC50: 50.4 µM
PC-3 [1]
  GI50: 31.9 µM
[2]
  inhibition: 26%

## C[C@H]1[C@H](C)CC[C@]2(C)CC[C@]3(C)C(=CC(=O)[C@@H]4[C@@]5(C)CC[C@@H](OC(=O)COc6ccc(Oc7ccccc7)cc6)[C@](C)(C(=O)O)[C@@H]5CC[C@]43C)[C@H]12
[3]
  IC50: 1.58 µM
PC-3 [1]
  GI50: 12.5 µM
[2]
  inhibition: 90%

## C[C@H]1[C@H](C)CC[C@]2(C)CC[C@]3(C)C(=CC(=O)[C@@H]4[C@@]5(C)CC[C@@H](OC(=O)CNc6ccccc6)[C@](C)(C(=O)O)[C@@H]5CC[C@]43C)[C@H]12
PC-3 [1]
  GI50: 12.1 µM
[2]
  inhibition: 46%

## C[C@H]1[C@H](C)CC[C@]2(C)CC[C@]3(C)C(=CC(=O)[C@@H]4[C@@]5(C)CC[C@@H](OC(=O)CN(CCO)CCO)[C@](C)(C(=O)O)[C@@H]5CC[C@]43C)[C@H]12
PC-3 [1]
  GI50: > 50 µM
[2]
  inhibition: 59%

## COC(=O)[C@@]1(C)C(=O)/C(=C/c2ccc(C(=O)O)cc2)C[C@]2(C)[C@H]3C(=O)C=C4[C@@H]5[C@@H](C)[C@H](C)CC[C@]5(C)CC[C@@]4(C)[C@]3(C)CC[C@@H]12
PC-3 [1]
  GI50: > 50 µM
[2]
  inhibition: 43%

## C[C@H]1[C@H](C)CC[C@]2(C)CC[C@]3(C)C(=CC(=O)[C@@H]4[C@@]5(C)Cc6c(C(=O)O)n[nH]c6[C@](C)(C(=O)OCc6ccccc6)[C@@H]5CC[C@]43C)[C@H]12
PC-3 [1]
  GI50: 22.7 µM
[2]
  inhibition: 31%

## CC1CCN(CC(=O)O[C@@H]2CC[C@@]3(C)[C@@H](CC[C@]4(C)[C@@H]3C(=O)C=C3[C@@H]5[C@@H](C)[C@H](C)CC[C@]5(C)CC[C@]34C)[C@@]2(C)C(=O)O)CC1
PC-3 [1]
  GI50: 15.6 µM
[2]
  inhibition: 78%

## C[C@H]1[C@H](C)CC[C@]2(C)CC[C@]3(C)C(=CC(=O)[C@@H]4[C@@]5(C)CC[C@@H](OC(=O)CN6CCN(C)CC6)[C@](C)(C(=O)O)[C@@H]5CC[C@]43C)[C@H]12
PC-3 [1]
  GI50: 37.9 µM
[2]
  inhibition: 24%

## C[C@H]1[C@H](C)CC[C@]2(C)CC[C@]3(C)C(=CC(=O)[C@@H]4[C@@]5(C)C/C(=C\c6ccc(C(=O)O)cc6)C(=O)[C@](C)(C(=O)OCc6ccccc6)[C@@H]5CC[C@]43C)[C@H]12
PC-3 [1]
  GI50: 32.1 µM
[2]
  inhibition: 40%

## C[C@H]1[C@H](C)CC[C@]2(C)CC[C@]3(C)C(=CC(=O)[C@@H]4[C@@]5(C)CC[C@@H](OC(=O)CN6CCNCC6)[C@](C)(C(=O)O)[C@@H]5CC[C@]43C)[C@H]12
PC-3 [1]
  GI50: > 50 µM
[2]
  inhibition: 49%

## C[C@H]1[C@H](C)CC[C@]2(C)CC[C@]3(C)C(=CC(=O)[C@@H]4[C@@]5(C)C/C(=C\c6ccccc6)C(=O)[C@](C)(C(=O)OCc6ccccc6)[C@@H]5CC[C@]43C)[C@H]12
PC-3 [1]
  GI50: > 50 µM
[2]
  inhibition: 37%

## C[C@H]1[C@H](C)CC[C@]2(C)CC[C@]3(C)C(=CC(=O)[C@@H]4[C@@]5(C)CC[C@@H](OC(=O)CN6CCN(c7cccc(C(F)(F)F)c7)CC6)[C@](C)(C(=O)O)[C@@H]5CC[C@]43C)[C@H]12
[3]
  IC50: 2.18 µM
PC-3 [1]
  GI50: 12.5 µM
[2]
  inhibition: 80%

## COC(=O)[C@@]1(C)C(=O)/C(=C/c2ccccc2C(=O)O)C[C@]2(C)[C@H]3C(=O)C=C4[C@@H]5[C@@H](C)[C@H](C)CC[C@]5(C)CC[C@@]4(C)[C@]3(C)CC[C@@H]12
PC-3 [1]
  GI50: 15.2 µM
[2]
  inhibition: 69%

## COC(=O)[C@@]1(C)c2[nH]nc(C(=O)O)c2C[C@@]2(C)[C@H]1CC[C@]1(C)[C@@H]2C(=O)C=C2[C@@H]3[C@@H](C)[C@H](C)CC[C@]3(C)CC[C@]21C
PC-3 [1]
  GI50: 37.6 µM
[2]
  inhibition: 56%

Source: ChEMBL document CHEMBL4265893, “Design, synthesis and biological evaluation of ring A modified 11-keto-boswellic acid derivatives as Pin1 inhibitors with remarkable anti-prostate cancer activity” (Bioorg Med Chem Lett, 2018)
